Experimental data from patent US20060079453A1, “Hla binding peptides and their uses” (priority 2002, published 2006).
Where two headings read alike, the source gives them in different places. No end group written: not given here.

Experiments:
Test in all cases: biochemical
Format in all cases: binding
[1] = target: HLA-DR DRB3*0101 (DR52) (Homo sapiens, UniProt P01903+P79483)
[2] = target: HLA-DR DRB1*0802 (DR8) (Homo sapiens, UniProt P01903+P01911, A100R/A103L/A169T/F76Y/H45Y/I96F/K41T/L162R/M171V/P40S/Q125H/Q178H/Q39Y/Q99D/R218S/R42G/S66Y/V115G/W38E)
[3] = target: HLA-DR DRB1*0901 (DR9) (Homo sapiens, UniProt P01903+P01911, A100R/A103E/D57H/D86V/F55Y/F60I/F76Y/I96F/K127E/L162R/M171V/P40D/Q125H/Q99R/R33Q/R42F/S133A/S66N/T210M/V115G/W38K/Y107V/Y59G/Y89S)
[4] = target: HLA-DR DRB1*1101 (DR11) (Homo sapiens, UniProt P01903+P01911, A100R/A169T/A87E/I96F/K41T/L162R/M171V/P40S/Q125H/Q178H/Q39Y/Q99D/R42S/S66Y/T262R/V115G/W38E)
Chain of HLA-DR DRB1*1101 (DR11) (P01903 26-254 limits assumed, other chains not shown): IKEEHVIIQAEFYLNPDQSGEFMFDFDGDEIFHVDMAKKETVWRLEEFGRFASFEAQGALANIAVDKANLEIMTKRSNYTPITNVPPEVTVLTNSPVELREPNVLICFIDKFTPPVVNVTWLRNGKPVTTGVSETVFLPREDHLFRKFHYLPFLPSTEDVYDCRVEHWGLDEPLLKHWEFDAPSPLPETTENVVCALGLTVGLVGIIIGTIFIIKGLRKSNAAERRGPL

[5] = target: HLA-DR DRB1*0301 (DR3) (Homo sapiens, UniProt P01903+P01911, A100K/A102G/A103R/A169T/F55Y/I96L/K41T/L162R/M171V/P40S/Q125H/Q178H/Q39Y/R42S/S66N/T106N/T262R/W38E/Y61H)
Chain of HLA-DR DRB1*0301 (DR3) (P01903 26-254 limits assumed, other chains not shown): as above

[6] = target: HLA-DR DRB1*1302 (DR13) (Homo sapiens, UniProt P01903+P01911, A100E/A169T/K41T/L162R/M171V/P40S/Q125H/Q178H/Q39Y/Q99D/R42S/S66N/T262R/V115G/W38E/Y61H)
Chain of HLA-DR DRB1*1302 (DR13) (P01903 26-254 limits assumed, other chains not shown): as above

[7] = target: HLA-DR DRB1*1501 (DR15) (Homo sapiens, UniProt P01903+P01911)
[8] = target: HLA-DR DRB4*0101 (DR53) (Homo sapiens, UniProt P01903+P13762, G164S)
[9] = target: HLA-DR DRB5*0101 (DR51) (Homo sapiens, UniProt P01903+Q30154)
[10] = target: HLA-DR DRB1*0401 (DR4) (Homo sapiens, UniProt P01903+P01911, A100K/A169T/F76Y/I96L/K127E/L162R/M171V/N62H/P40V/Q125Y/R42H/S133A/S149N/S66Y/V115G/V209L/W38E)
[11] = target: HLA-DR DRB1*0701 (DR7) (Homo sapiens, UniProt P01903+P01911, A100R/A102G/A103Q/D57E/D86V/E43K/F76Y/K127E/L162R/M171V/P40G/Q125H/Q99D/R33Q/R42Y/R54Q/S133A/S66F/T210M/V115G/Y107V/Y59L/Y89S)
[12] = target: HLA-DR DRB1*0101 (DR1) (Homo sapiens, UniProt P01903+P01911, A100R/D57E/F55L/F60I/F76Y/I96L/L162R/M171V/P40L/Q125E/R42F/V115G/Y59C); settings: read-out: DRB1 *0101

HSLFHPEDTGQVFQV
IC50 ([1]; read-out: DRB3 *0101): 0.553 µM

IFAIFRQDSSSTGWN
IC50 [2]: 4.73 µM
IC50 ([3]; DRB1 *0901): 0.97 µM
IC50 ([4]; DRB1 *1101): 4.56 µM
IC50 [5]: 0.402 µM
IC50 ([6]; DRBI *1302): 0.775 µM
IC50 ([7]; DRBI *1501): 0.204 µM
IC50 ([8]; DRB4 *0101): 0.03 µM
IC50 ([9]; DRB5 *0101): 109 µM
IC50 ([10]; DRB1 *0401): 0.0096 µM

KPAVYTKVVHYRKWI
IC50 ([7]; read-out: DRBI *1501): 0.401 µM
IC50 ([9]; read-out: DRB5 *0101): 0.023 µM
IC50 ([1]; read-out: DRB3 *0101): 7.19 µM

LAHYDVLLSYPNK
IC50 ([2]; read-out: DRB1 *0802): 0.415 µM
IC50 ([3]; read-out: DRB1 *0901): 1.01 µM
IC50 ([5]; read-out: DRB1 *0301): 37.5 µM
IC50 ([11]; read-out: DRB1 *0701): 3.62 µM
IC50 [12]: 0.079 µM

LGFFPDHQLDPAFRAN
IC50 ([1]; read-out: DRB3 *0101): 1.45 µM

LGFLQRSSNTQTQKL
IC50 ([4]; read-out: DRB1 *1101): 26.2 µM
IC50 ([6]; read-out: DRBI *1302): 0.021 µM
IC50 ([9]; read-out: DRB5 *0101): 0.339 µM
IC50 ([1]; read-out: DRB3 *0101): > 1750 µM

LMAFTAAVTS
IC50 [2]: > 40.6 µM
IC50 ([3]; DRB1 *0901): 0.16 µM
IC50 ([4]; DRB1 *1101): > 23.3 µM
IC50 [5]: > 74 µM
IC50 ([6]; DRBI *1302): > 2.46 µM
IC50 ([7]; DRBI *1501): 1.93 µM
IC50 ([8]; DRB4 *0101): 11.7 µM
IC50 ([9]; DRB5 *0101): > 12.6 µM
IC50 ([11]; DRB1 *0701): 0.24 µM
IC50 ([10]; DRB1 *0401): 0.321 µM

LWQLNGRLEYCLKDR
IC50 [1]: 29 µM

MSAMTALAALFPPEG
IC50 ([4]; read-out: DRB1 *1101): > 200 µM
IC50 ([9]; read-out: DRB5 *0101): 63.2 µM
IC50 ([1]; read-out: DRB3 *0101): 7.16 µM

MTNLAALFPPEGVSI
IC50 ([4]; read-out: DRB1 *1101): 141 µM
IC50 ([8]; read-out: DRB4 *0101): 4.61 µM
IC50 ([9]; read-out: DRB5 *0101): 141 µM
IC50 ([1]; read-out: DRB3 *0101): > 8.83 µM

RGGMVFELANSIYLP
IC50 ([2]; read-out: DRB1 *0802): 8.68 µM
IC50 ([3]; read-out: DRB1 *0901): 0.033 µM
IC50 ([5]; read-out: DRB1 *0301): 37.1 µM
IC50 ([11]; read-out: DRB1 *0701): 0.041 µM
IC50 [12]: 0.01 µM

RLFDNAMLRAHRLHQ
IC50 ([6]; read-out: DRBI *1302): 0.738 µM
IC50 ([7]; read-out: DRBI *1501): 0.018 µM
IC50 ([8]; read-out: DRB4 *0101): 1.63 µM
IC50 ([9]; read-out: DRB5 *0101): 0.058 µM
IC50 ([1]; read-out: DRB3 *0101): > 270 µM

RQEILDLWVYHTQGF
IC50 [2]: 2.73 µM
IC50 ([3]; DRB1 *0901): 3.68 µM
IC50 ([4]; DRB1 *1101): 11.1 µM
IC50 [5]: 10.5 µM
IC50 ([7]; DRBI *1501): 0.985 µM
IC50 ([9]; DRB5 *0101): > 20.5 µM
IC50 ([11]; DRB1 *0701): 3.05 µM
IC50 ([10]; DRB1 *0401): 5.93 µM

SHDLMLLRLSEPAEL
IC50 ([2]; read-out: DRB1 *0802): 3.54 µM
IC50 ([3]; read-out: DRB1 *0901): 0.064 µM
IC50 ([5]; read-out: DRB1 *0301): 6.22 µM
IC50 ([11]; read-out: DRB1 *0701): 0.058 µM
IC50 ([10]; read-out: DRB1 *0401): 4.05 µM
IC50 [12]: 0.532 µM

SHDLMLLRLSEPAKI
IC50 ([6]; read-out: DRBI *1302): 0.0018 µM
IC50 ([8]; read-out: DRB4 *0101): 0.01 µM
IC50 ([9]; read-out: DRB5 *0101): 2.03 µM
IC50 ([1]; read-out: DRB3 *0101): 5.36 µM

TAWTIYRVEILRNFY
IC50 ([4]; read-out: DRB1 *1101): 5.05 µM
IC50 ([6]; read-out: DRBI *1302): 0.072 µM
IC50 ([8]; read-out: DRB4 *0101): 0.026 µM
IC50 ([9]; read-out: DRB5 *0101): 0.518 µM
IC50 ([1]; read-out: DRB3 *0101): 14.4 µM

VAQVRGGNIVFELANS
IC50 ([4]; read-out: DRB1 *1101): > 50 µM
IC50 ([6]; read-out: DRBI *1302): 2.8 µM
IC50 ([8]; read-out: DRB4 *0101): 0.1 µM
IC50 ([9]; read-out: DRB5 *0101): 64.4 µM
IC50 ([1]; read-out: DRB3 *0101): > 21.9 µM

YKTIAYDEEARR
IC50 ([9]; DRB5 *0101): ≥ 200 µM
IC50 [1]: > 50 µM

YLVTGERGFFYTKPT
IC50 ([7]; read-out: DRBI *1501): > 21 µM
IC50 ([8]; read-out: DRB4 *0101): 27.9 µM
IC50 ([1]; read-out: DRB3 *0101): 9.57 µM
